Data on five compounds can be found in patent publication US20040266766A1, “Selective urokinase inhibitors” (Wilex AG, priority 2001, published 2004).

The structures appear in SMILES notation. Structures can show the parent of a compound that is named as a salt. Where two headings read alike, the source gives them in different places. Bounds are passed on as bounds.

One data set concerns mouse mammary carcinoma. The settings on record: cited from earlier work.
The subject of the next data set is rat prostate carcinoma. Conditions: syngenic model for rat prostate carcinoma; cited from earlier work.
A short description of data set [1]: Oral bioavailability and plasma kinetics in mice (serum concentration). Type of data set: in vivo, Balb/c mice. The settings on record: mouse; for concentration at 20 min / concentration at 40 min / concentration at 60 min: female, Balb/c, serum, po; for concentration at 20 min: sample at 20 minutes; for concentration at 40 min: sample at 40 minutes; for concentration at 60 min: sample at 60 minutes; for c in the serum 1st analysis / c in the serum 2nd analysis: 10 mg/kg i.v.

Another data set has as its system Caco-2 cell monolayers. The data set can be described thus: Caco-assay: transport across Caco-2 cell monolayers. Type of data set: in vitro ADME, human. Conditions: for % amount in the basolateral compartment: 10 μg/ml apical, four hours. Put shortly:
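Caco-2 monolayers grown three weeks on 0.4 μm polycarbonate filters; compounds applied apically at 10 μg/ml in HBSS/30 mM HEPES pH 7.2 for 4 h. Apical and basolateral samples quantified by scintillation counting, integrity checked by TEER; triplicate experiments.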

In data set [2] the target is T1, Thrombin (Homo sapiens, UniProt P00734). The data set can be described thus: In vitro inhibition of thrombin (Ki according to Dixon). The data set is classed as biochemical. The gist of the method:
(§1)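 Chromogenic read-out in 0.05 mol/l Tris, 0.154 mol/l NaCl, pH 8.0, with inhibitor, substrate (Pefachrome uPA, Pefachrome PL or Pefabloc TH) and protease, incubated 10 min at 30 °C. Absorbance at 405 nm was read after ca. 30 min (30 cycles). Ki was derived by Dixon linear regression.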

For another data set, the target named is T2, urokinase (Homo sapiens, UniProt P00749).
T2 construct: purchased Calbiochem-Novabiochem GmbH, Bad Soden, Germany
The data set can be described thus: In vitro inhibition of urokinase by WX-508 (Example 15). Type of data set: biochemical. The method, then:
(§2) In order to determine the uPA inhibitory activity, 200 μl Tris-buffer (0.05 mol/l containing the inhibitor, 0.154 mol/l NaCl, pH 8.0), 25 μl substrate (Pefachrome uPA or BZ-O-Ala-Gly-Arg-pNA in H2O; Pentapharm Ltd., Basle, Switzerland) and 50 μl urokinase (Calbiochem-Novabiochem GmbH, Bad Soden, Germany) or another appropriate protease are incubated at 30° C. After ca. 30 minutes and 30 cycles the absorption is determined at 405 nm by means of a microplate reader (Mediators PHL, Aureon Biosystems, Vienna, Austria). The Ki values were determined according to Dixon by linear regression using a computer program.

The target in data set [3] is T3, Plasmin (Homo sapiens, UniProt P00747). Briefly: In vitro inhibition of plasmin by WX-508 (Example 15). The data set is classed as biochemical. The method, then:
as §2

In the next data set the target is PK (Homo sapiens, UniProt P03952). Briefly: In vitro inhibition of PK (Ki). Type of data set: biochemical. The settings on record: summary table. The gist of the method:
as §1

A further data set has as its target T4, urokinase (uPA) (Homo sapiens, UniProt P00749).
T4 construct: purchased Calbiochem-Novabiochem GmbH, Bad Soden, Germany
The data set can be described thus: In vitro inhibition of urokinase (Ki according to Dixon, chromogenic substrate). The data set is classed as biochemical. Put shortly: as §1

Data set [4] has as its target T1, Thrombin. The data set can be described thus: In vitro inhibition of thrombin by WX-508 (Example 15). The data set is classed as biochemical. The method, then: as §2
The target in data set [5] is T3, Plasmin. The data set can be described thus: In vitro inhibition of plasmin (Ki according to Dixon). Type of data set: biochemical. The method, then:
In order to determine the inhibitory activity, 200 μl Tris buffer (0.05 mol/l containing the inhibitor, 0.154 mol/l NaCl, pH 8.0), 25 μl substrate (Pefachrome uPA, Pefachrome PL or Pefabloc TH in H2O; Pentapharm Ltd, Basle, Switzerland) and 50 μl urokinase (Calbiochem-Novabiochem GmbH, Bad Soden, Germany) or another appropriate protease e.g. plasmin, thrombin or FXa are incubated for 10 minutes at 30° C. After ca. 30 minutes and 30 cycles the absorption is determined at 405 nm by means of a microplate reader (Mediators PHL, Aureon Biosystems, Vienna, Austria). The Ki values were determined according to Dixon by linear regression using a computer program.

The target of a further data set is FXa (Homo sapiens, UniProt P00742). The data set can be described thus: In vitro inhibition of FXa (Ki according to Dixon). The data set is classed as biochemical. Put shortly:
as §1

In a further data set the test system is mammary carcinoma BN-472. The data set can be described thus: Tumor spreading, tumor growth and metastasizing in a rat breast cancer model. The data set is classed as in vivo, brown Norwegian rats. The settings on record: 0.3 mg/kg daily subcutaneously, 4 weeks. The method, then:
10-25 mm^3 of transplantable metastasising mammary carcinoma BN-472 breast cancer tumor fragments from donor rats were transplanted orthotopically under the mammary fat pad. (Day 0) into 6 to 8 weeks old female brown Norwegian rats. Subcutaneous treatment was started 5 days after tumor inoculation. Each group consisted of 18 animals. The treatment group received a daily dose of 0.3 mg/kg body weight subcutaneously. The treatment-was carried out over a period of 4 weeks.
The dimensions of the subcutaneous tumors and the weight of the animals were determined weekly. At the end of the treatment the animals were sacrificed and tumor weights, organ weights and the number of metastases in relevant tissues were determined.
The data were analyzed using the SigmaStat Vers.2.03 statistical package. Tumor sizes, tumor weights and the weights of the organs were checked with the Shapiro-Wilk W-test for normality of distribution (Royston P., Approximating the Shapiro-Wilk W-test for non-normality. Statistics and Computing 1992, 2:117-119). For each parameter the Shapiro-Wilk W-tests were performed on all data (e.g., tumor weights of all rats), and separately for each treatment group. If one of the P-values was <0.05 the variable was considered to be abnormally distributed and the Mann-Whitney U-test was used to test for significance levels of differences. The Mann-Whitney U-test was used to test for differences in weights of the axillary lymph nodes, intra peritoneal lymph nodes, tumor, and the number of lung foci. Primary and metastatic tumor data at the end of the treatment period were graphically represented using the Box-Whisker graphs, with the box showing the inter-quartile range of values, with a horizontal line at the median value. Whiskers represent the 5th and 95th percentile of values, and the individual values are indicated by dots. The unadjusted level for statistical significance was α=0.05. All tests were two-sided.

Data set [6] concerns rat breast adenocarcinoma cells. The settings on record: after i.v. inoculation of rat breast adenocarcinoma cells; cited from earlier work.
Data set [7] has as its system DU145 tumors (a prostate adenocarcinoma cell line). Conditions: SCID mice, orally 125 to 250 mg/kg/day; cited from earlier work.
Another data set deals with uPA (Homo sapiens, UniProt P00749). Conditions: background, literature; read-out: Ki, uPA (inhibition constant); cited from earlier work.
Setting [8] is: 30 mg/kg, 30 mg/kg oral, read-out: c in the serum 1st analysis.
Where [9] appears, read: 30 mg/kg, 30 mg/kg oral, read-out: c in the serum 2nd analysis.
[10] abbreviates: 300 mg/kg, 300 mg/kg oral, read-out: c in the serum 1st analysis.
Where [11] appears, read: 300 mg/kg, 300 mg/kg oral, read-out: c in the serum 2nd analysis.
The mark [12] stands for this setting: list of test substances of Example 17, read-out: Ki human uPA.
Where [13] appears, read: summary table, read-out: Ki uPA.

T3 sequence (P00747 581-810 limits assumed, species assumed): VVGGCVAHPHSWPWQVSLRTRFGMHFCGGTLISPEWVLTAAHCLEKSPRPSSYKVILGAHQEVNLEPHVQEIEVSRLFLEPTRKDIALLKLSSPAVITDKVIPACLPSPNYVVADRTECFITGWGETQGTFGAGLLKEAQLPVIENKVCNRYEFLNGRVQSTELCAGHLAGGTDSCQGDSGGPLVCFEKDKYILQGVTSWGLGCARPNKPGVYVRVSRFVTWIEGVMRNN
T3 sequence (P00747 97-580 partner limits assumed, species assumed): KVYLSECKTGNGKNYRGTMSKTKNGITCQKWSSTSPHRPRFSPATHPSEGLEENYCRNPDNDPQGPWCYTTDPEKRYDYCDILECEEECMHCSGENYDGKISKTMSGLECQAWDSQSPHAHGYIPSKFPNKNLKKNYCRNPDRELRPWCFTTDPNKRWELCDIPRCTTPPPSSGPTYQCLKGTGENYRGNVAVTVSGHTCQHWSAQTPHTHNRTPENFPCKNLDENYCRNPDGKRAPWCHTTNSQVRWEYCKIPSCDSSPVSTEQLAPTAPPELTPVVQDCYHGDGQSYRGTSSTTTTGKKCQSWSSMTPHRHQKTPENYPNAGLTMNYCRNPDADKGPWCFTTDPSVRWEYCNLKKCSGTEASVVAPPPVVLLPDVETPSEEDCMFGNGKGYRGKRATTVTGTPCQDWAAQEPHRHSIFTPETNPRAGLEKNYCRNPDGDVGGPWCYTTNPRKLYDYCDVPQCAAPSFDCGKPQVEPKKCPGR
PK, sequence (P03952 20-638): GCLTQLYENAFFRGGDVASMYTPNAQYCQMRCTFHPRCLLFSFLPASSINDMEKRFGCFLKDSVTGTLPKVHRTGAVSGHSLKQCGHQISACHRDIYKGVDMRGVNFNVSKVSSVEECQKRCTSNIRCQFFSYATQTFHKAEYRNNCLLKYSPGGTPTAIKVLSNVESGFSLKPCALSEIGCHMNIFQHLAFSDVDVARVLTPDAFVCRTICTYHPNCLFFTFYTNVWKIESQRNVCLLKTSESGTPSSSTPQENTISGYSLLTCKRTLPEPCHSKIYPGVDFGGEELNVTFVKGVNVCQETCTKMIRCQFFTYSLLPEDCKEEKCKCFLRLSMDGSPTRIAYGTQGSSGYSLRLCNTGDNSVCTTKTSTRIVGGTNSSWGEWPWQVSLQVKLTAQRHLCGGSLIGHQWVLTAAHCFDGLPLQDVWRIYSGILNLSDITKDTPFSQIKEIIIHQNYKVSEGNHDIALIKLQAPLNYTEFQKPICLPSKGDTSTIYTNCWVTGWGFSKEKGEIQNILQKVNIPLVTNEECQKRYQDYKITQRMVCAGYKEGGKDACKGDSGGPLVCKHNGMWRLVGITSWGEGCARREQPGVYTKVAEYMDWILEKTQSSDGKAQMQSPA
FXa, sequence (P00742 235-488 limits assumed): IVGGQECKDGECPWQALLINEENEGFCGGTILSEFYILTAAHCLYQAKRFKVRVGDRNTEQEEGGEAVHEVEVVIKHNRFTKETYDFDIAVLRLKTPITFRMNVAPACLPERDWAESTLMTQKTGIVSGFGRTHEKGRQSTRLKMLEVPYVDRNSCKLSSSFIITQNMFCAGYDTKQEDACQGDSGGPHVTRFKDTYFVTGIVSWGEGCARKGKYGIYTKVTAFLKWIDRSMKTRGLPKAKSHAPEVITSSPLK
FXa, sequence (P00742 41-179 partner limits assumed): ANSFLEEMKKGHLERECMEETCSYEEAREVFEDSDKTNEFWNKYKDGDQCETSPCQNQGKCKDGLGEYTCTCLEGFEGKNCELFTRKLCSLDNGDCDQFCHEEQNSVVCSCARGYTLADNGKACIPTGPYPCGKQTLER

With `N=C(N)c1cc2c(I)cccc2s1` [B428, 4-iodo-benzo[b]-thiophene-2-carboxamidine], the primary tumor growth result in the data set on mouse mammary carcinoma (administered together with the anti-oestrogen Tamoxifen) was “further decrease of primary tumor growth”. The “tumor growth and formation of metastases” value in the data set with mouse mammary carcinoma (syngenic model for mouse mammary carcinoma) was “decrease in tumor growth and formation of metastases”; in the data set on rat prostate carcinoma, “decrease in tumor growth and formation of metastases”.

One may read the Ki as the equilibrium dissociation constant of an inhibitor or competing ligand from its target. On to `N=C(N)Nc1ccc(CNC(=O)CNC(=O)[C@@H](CO)NS(=O)(=O)Cc2ccccc2)cc1` [WX-508, benzylsulfonyl-(D)-Ser-Gly-(4-guanidinobenzyl)amide hydrochloride], for which the figures for the concentration at 20 min in data set [1] (setting [8]), in data set [1] (setting [9]) and in data set [1] (setting [10]) were 300 ng/mL, 300 ng/mL and 3500 ng/mL, respectively. Moreover, the concentration at 40 min in [1] (setting [8]) came out at 5700 ng/mL; in [1] (setting [9]), 4500 ng/mL; in [1] (setting [10]), 7500 ng/mL; in data set [1] (setting [11]), 8300 ng/mL. For the same compound, the concentration at 60 min was 80 ng/mL in data set [1] (setting [8]), 90 ng/mL in data set [1] (setting [9]), 5400 ng/mL in data set [1] (setting [10]) and 5800 ng/mL in [1] (setting [11]). The “c in the serum 1st analysis” value in data set [1] (time of sample collection 0) was found to be 41.1 µg/mL; in data set [1] (time of sample collection 10), 4.3 µg/mL; in data set [1] (time of sample collection 30), 0.7 µg/mL. For the same compound, the “c in the serum 2nd analysis” value in data set [1] (time of sample collection 0) turned out to be 55.5 µg/mL; in data set [1] (time of sample collection 10) it was 4.7 µg/mL; in data set [1] (time of sample collection 30), 0.2 µg/mL. The “% amount in the basolateral compartment” value in the data set on Caco-2 cell monolayers (first value column) was 0.2%; with Caco-2 cell monolayers (second value column) it was 0.1%; in the data set with Caco-2 cell monolayers (third value column), 0.7%. For the same compound, the “Caco-2 assay % basolateral” value in the data set on Caco-2 cell monolayers (first series, first value) was 0.2%; with Caco-2 cell monolayers (first series, second value), 0.1%; in the data set on Caco-2 cell monolayers (first series, third value), 0.7%. The Ki on Thrombin [2] is above 350 µM; at Thrombin [2] (summary table), above 350 µM; on urokinase, 0.04 µM; on Plasmin [3], above 1000 µM; at PK it was 180 µM; at urokinase (uPA) (setting [12]), 0.034 µM. The Ki at urokinase (uPA) (read-out: Ki uPA) was 0.034 µM; at urokinase (uPA) (setting [13]), 0.034 µM; on Thrombin [4], above 1000 µM; on Plasmin [5], above 200 µM; on Plasmin [5] (summary table), above 200 µM.

`N=C(N)Nc1ccc(CNC(=O)CNC(=O)C(CO)NS(=O)(=O)Cc2ccc(Cl)cc2)cc1` (stereo not drawn) [WX-C340, 4-Chlorobenzyl-sulfonyl-(D)-Ser-Gly-(4-guanidinobenzyl)amide hydrochloride]: the concentration at 20 min in data set [1] (setting [8]) is 300 ng/mL; in data set [1] (setting [9]), 500 ng/mL; in [1] (setting [10]), 4500 ng/mL. The results for the concentration at 40 min in data set [1] (setting [8]), in [1] (setting [9]) and in [1] (setting [10]) were 300 ng/mL, 800 ng/mL and 4900 ng/mL, respectively. Also, the concentration at 60 min was 1400 ng/mL in data set [1] (setting [8]), 2300 ng/mL in [1] (setting [9]) and 4300 ng/mL in data set [1] (setting [10]). The entries for the “c in the serum 1st analysis” value in data set [1] (time of sample collection 0), in [1] (time of sample collection 10) and in data set [1] (time of sample collection 30) were 51.8 µg/mL, 5.3 µg/mL and 1.7 µg/mL, respectively. The “% amount in the basolateral compartment” value in the data set with Caco-2 cell monolayers (first value column) was 2.4%; with Caco-2 cell monolayers (second value column), 0.2%; in the data set on Caco-2 cell monolayers (third value column) it was 0.1%. Further, the “Caco-2 assay % basolateral” value in the data set with Caco-2 cell monolayers (first series, first value) came to 2.4%; in the data set with Caco-2 cell monolayers (first series, second value), 0.2%; with Caco-2 cell monolayers (first series, third value), 0.1%; in the data set with Caco-2 cell monolayers (second series, first value), 2.3%; in the data set with Caco-2 cell monolayers (second series, second value) it was 0.1%; with Caco-2 cell monolayers (second series, third value) it was 0.1%. Besides, the “Ki Thrombin” value at Thrombin [2] and on Thrombin [2] (summary table) was “no inh. at 100 μM *)” in each case. Also, the Ki on FXa came out at 34 µM; at PK it was 216 µM; at urokinase (uPA) (setting [12]), 0.01 µM; on urokinase (uPA) (read-out: Ki uPA), 0.01 µM; at urokinase (uPA) (setting [13]) it was 0.01 µM. The “Ki Plasmin” value at Plasmin [5] and at Plasmin [5] (summary table) was “no inh. at 100 μM *)” in each case. Further, the “reduction of the axillary lymph node weights” value in the data set with mammary carcinoma BN-472 (compared with the control group, P=0.006) is recorded as 73%. Besides, in the data set with mammary carcinoma BN-472 (compared with the control group, P≦0.001), the “reduction in the number of lung foci” value came out at 63%. For the same compound, in the data set with mammary carcinoma BN-472 (P=0.141), the “reduction of the median tumor weight” value is given as 29%.

Take `N=C(N)NC(=O)c1nc(Cl)c(N)nc1N` [amiloride]: the “formation of lung metastases” value in data set [6] is reported as “prevents the formation of lung metastases”.

Turning to `N=C(N)c1ccc(N)cc1` [p-Aminobenzamidine], in [7], the “growth rate of DU145 tumors” value was “considerable decrease in the growth rate” and the side-effects result is given as “negligibly small”. Moreover, the Ki on uPA is 82 µM.
